Active and inactive are the calls of the source. No cut-off for these calls is given here.
Key:
Adenosine receptor A3 = target: T1, Adenosine receptor A3 (Homo sapiens, UniProt P0DMS8); assay: Displacement of [3H]PSB-11 from human A3 adenosine receptor expressed in CHO cell membranes incubated for 60 mins by liquid scintillation counting method
T1 sequence (P0DMS8 whole entry): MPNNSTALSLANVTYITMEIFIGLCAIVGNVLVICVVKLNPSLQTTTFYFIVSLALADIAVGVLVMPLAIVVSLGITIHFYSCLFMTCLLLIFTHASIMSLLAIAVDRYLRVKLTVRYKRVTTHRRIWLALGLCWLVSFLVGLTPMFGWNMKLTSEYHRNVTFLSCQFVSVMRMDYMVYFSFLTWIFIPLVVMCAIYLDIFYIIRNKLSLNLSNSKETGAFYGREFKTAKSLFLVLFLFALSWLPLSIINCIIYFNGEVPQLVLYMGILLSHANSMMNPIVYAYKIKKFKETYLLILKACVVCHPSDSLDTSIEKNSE

[1] = Inhibition of Manduca sexta V-type proton ATPase assessed as reduction in inorganic phosphate production pre-inucubated for 5 mins before Tris-ATP addition and measured after 2 mins
cells = conditions: Homo sapiens, 1321-N1, 72 h
Description: Growth inhibition of human 1321N1 cells incubated for 72 hrs by MTT assay

Neutrophil elastase = target: T2, Neutrophil elastase (Homo sapiens, UniProt P08246); assay: Inhibition of human leukocyte elastase assessed as reduction in pNA release using chromogenic MeO-Suc-Ala-Ala-Pro-Val-pNA substrate measured over 10 mins by spectrophotometry
T2 sequence (P08246 whole entry): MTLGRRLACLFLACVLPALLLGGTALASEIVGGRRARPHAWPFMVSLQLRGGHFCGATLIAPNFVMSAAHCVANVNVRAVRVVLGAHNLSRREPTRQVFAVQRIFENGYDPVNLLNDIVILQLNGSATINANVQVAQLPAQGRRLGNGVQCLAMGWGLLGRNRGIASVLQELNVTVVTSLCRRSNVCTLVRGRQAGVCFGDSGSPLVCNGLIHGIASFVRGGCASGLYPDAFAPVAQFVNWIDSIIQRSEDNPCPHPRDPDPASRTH

P2X purinoceptor 3 = target: T3, P2X purinoceptor 3 (Homo sapiens, UniProt P56373); assay: Inhibition of human P2X3 assessed as reduction in agonist-induced intracellular Ca2+ concentration pre-incubated for 30 mins before agonist addition by calcium 5 dye based fluorescence assay; type: cell-based
T3 sequence (P56373 whole entry): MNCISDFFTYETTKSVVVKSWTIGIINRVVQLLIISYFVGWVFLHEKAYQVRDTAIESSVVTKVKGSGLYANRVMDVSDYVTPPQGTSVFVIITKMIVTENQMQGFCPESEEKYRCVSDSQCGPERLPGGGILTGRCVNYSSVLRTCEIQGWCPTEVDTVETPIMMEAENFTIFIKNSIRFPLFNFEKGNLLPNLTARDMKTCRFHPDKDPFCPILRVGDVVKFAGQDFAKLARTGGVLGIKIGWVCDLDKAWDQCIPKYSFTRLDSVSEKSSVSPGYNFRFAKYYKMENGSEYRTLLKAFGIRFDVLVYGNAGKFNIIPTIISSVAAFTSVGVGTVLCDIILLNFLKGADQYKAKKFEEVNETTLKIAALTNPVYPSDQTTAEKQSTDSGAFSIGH

[2] = target: P2Y purinoceptor 4 (Homo sapiens) (UniProt P51582); assay: Inhibition of human P2Y4 assessed as reduction in agonist-induced intracellular Ca2+ concentration at 10 uM pre-incubated for 30 mins before agonist addition by FLUO-4 AM dye based fluorescence assay; type: functional, cell-based
[3] = target: Peroxisome proliferator-activated receptor gamma (Homo sapiens) (UniProt P37231); assay: Inhibition of human PPARgamma at 10 uM relative to control
[4] = target: Uracil nucleotide/cysteinyl leukotriene receptor (Homo sapiens) (UniProt Q13304); assay: Inhibition of human GPR17 at 10 uM by Oregon-green BAPTA-1/AM dye based calcium mobilization assay; type: functional
[5] = target: P2X purinoceptor 7 (Homo sapiens) (UniProt Q99572); assay: Inhibition of human P2X7 assessed as reduction in agonist-induced intracellular Ca2+ concentration at 10 uM pre-incubated for 30 mins before agonist addition by FLUO-4 AM dye based fluorescence assay; type: cell-based
Trypsin (Homo sapiens) = Trypsin (Homo sapiens) (UniProt P07477+P07478+P35030); assay: Inhibition of trypsin (unknown origin) assessed as reduction in pNA release using chromogenic Suc-Ala-Ala-Pro-Arg-pNA substrate measured over 10 mins by spectrophotometry; type: protein assay
[6] = target: Cathepsin B (Homo sapiens) (UniProt P07858); assay: Inhibition of cathepsin B (unknown origin) assessed as reduction in pNA release using chromogenic Z-Arg-Arg-pNA substrate measured over 1 hr by spectrophotometry
[7] = target: P2Y purinoceptor 12 (Homo sapiens) (UniProt Q9H244); assay: Inhibition of human P2Y12 assessed as reduction in agonist-induced intracellular Ca2+ concentration at 10 uM pre-incubated for 30 mins before agonist addition by FLUO-4 AM dye based fluorescence assay; type: functional, cell-based
[8] = target: P2Y purinoceptor 6 (Homo sapiens) (UniProt Q15077); assay: Inhibition of human P2Y6 assessed as reduction in agonist-induced intracellular Ca2+ concentration at 10 uM pre-incubated for 30 mins before agonist addition by FLUO-4 AM dye based fluorescence assay; type: functional, cell-based
[9] = target: Adenosine receptor A1 (Homo sapiens) (UniProt P30542); assay: Inhibition of human A1 adenosine receptor incubated for 60 mins by liquid scintillation counting method
[10] = target: Adenosine receptor A2a (Homo sapiens) (UniProt P29274); assay: Inhibition of human A2A adenosine receptor incubated for 60 mins by liquid scintillation counting method
Homo sapiens = organism: Homo sapiens; assay: Inhibition of Calcium channel (unknown origin) at 10 uM relative to control
[11] = target: P2Y purinoceptor 1 (Homo sapiens) (UniProt P47900); assay: Inhibition of human P2Y1 assessed as reduction in agonist-induced intracellular Ca2+ concentration at 10 uM pre-incubated for 30 mins before agonist addition by FLUO-4 AM dye based fluorescence assay; type: functional, cell-based
[12] = target: P2X purinoceptor 4 (Homo sapiens) (UniProt Q99571); assay: Inhibition of human P2X4 assessed as reduction in agonist-induced intracellular Ca2+ concentration at 10 uM pre-incubated for 30 mins before agonist addition by FLUO-4 AM dye based fluorescence assay; type: cell-based
[13] = target: P2Y purinoceptor 11 (Homo sapiens) (UniProt Q96G91); assay: Inhibition of human P2Y11 assessed as reduction in agonist-induced intracellular Ca2+ concentration at 10 uM pre-incubated for 30 mins before agonist addition by FLUO-4 AM dye based fluorescence assay; type: functional, cell-based
[14] = target: Chymotrypsin (Homo sapiens) (UniProt Q99895+P17538+P40313+Q6GPI1); assay: Inhibition of chymotrypsin (unknown origin) assessed as reduction in pNA release using chromogenic Suc-Ala-Ala-Pro-Phe-pNA substrate measured over 12.5 mins by spectrophotometry; type: protein assay
[15] = target: Procathepsin L (Homo sapiens) (UniProt P07711); assay: Inhibition of cathepsin L (unknown origin) assessed as reduction in pNA release using chromogenic Z-Phe-Arg-pNA substrate measured over 1 hr by spectrophotometry
[16] = target: P2X purinoceptor 2 (Homo sapiens) (UniProt Q9UBL9); assay: Inhibition of human P2X2 assessed as reduction in agonist-induced intracellular Ca2+ concentration at 10 uM pre-incubated for 30 mins before agonist addition by FLUO-4 AM dye based fluorescence assay; type: cell-based
[17] = target: P2X purinoceptor 3 (Homo sapiens) (UniProt P56373); assay: Non-competitive inhibition of human P2X3 expressed in human 1321N1 cells assessed as reduction in maximal effect of ATP-induced intracellular Ca2+ concentration pre-incubated for 30 mins before agonist addition by calcium 5 dye based fluorescence assay; type: cell-based
[18] = target: P2X purinoceptor 1 (Homo sapiens) (UniProt P51575); assay: Inhibition of human P2X1 assessed as reduction in agonist-induced intracellular Ca2+ concentration at 10 uM pre-incubated for 30 mins before agonist addition by calcium 5 dye based fluorescence assay; type: cell-based
[19] = target: Adenosine receptor A2b (Homo sapiens) (UniProt P29275); assay: Inhibition of human A2B adenosine receptor incubated for 60 mins by liquid scintillation counting method
[20] = target: P2Y purinoceptor 14 (Homo sapiens) (UniProt Q15391); assay: Inhibition of human P2Y14 assessed as reduction in agonist-induced intracellular Ca2+ concentration at 10 uM pre-incubated for 30 mins before agonist addition by FLUO-4 AM dye based fluorescence assay; type: functional, cell-based
[21] = target: P2Y purinoceptor 2 (Homo sapiens) (UniProt P41231); assay: Inhibition of human P2Y2 assessed as reduction in agonist-induced intracellular Ca2+ concentration at 10 uM pre-incubated for 30 mins before agonist addition by FLUO-4 AM dye based fluorescence assay; type: functional, cell-based
[22] = Stability in human liver microsomes assessed as rapid demethylation at 1 uM; type: ADME, Microsome
[23] = Stability in human liver microsomes assessed as rapid oxidation at 1 uM; type: ADME, Microsome
[24] = Intrinsic clearance in CD1 mouse liver microsomes at 1 uM; type: ADME, Microsome; conditions: read-out: CLH
[25] = Stability in CD1 mouse liver microsomes assessed as rapid hydroxylation at 1 uM; type: ADME, Microsome
[26] = Stability in CD1 mouse liver microsomes assessed as rapid demethylation at 1 uM; type: ADME, Microsome
[27] = Stability in human liver microsomes assessed as rapid hydroxylation at 1 uM; type: ADME, Microsome
[28] = Stability in CD1 mouse liver microsomes assessed as rapid oxidation at 1 uM; type: ADME, Microsome

Sequence of Procathepsin L (Homo sapiens) (P07711 114-333 limits assumed): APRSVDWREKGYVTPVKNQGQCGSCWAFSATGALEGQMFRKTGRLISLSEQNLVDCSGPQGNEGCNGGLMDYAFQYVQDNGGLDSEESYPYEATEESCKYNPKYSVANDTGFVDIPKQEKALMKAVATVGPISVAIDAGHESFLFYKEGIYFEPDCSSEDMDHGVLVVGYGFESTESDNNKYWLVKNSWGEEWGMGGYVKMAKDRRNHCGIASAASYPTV
Sequence of P2Y purinoceptor 6 (Homo sapiens) (Q15077 whole entry): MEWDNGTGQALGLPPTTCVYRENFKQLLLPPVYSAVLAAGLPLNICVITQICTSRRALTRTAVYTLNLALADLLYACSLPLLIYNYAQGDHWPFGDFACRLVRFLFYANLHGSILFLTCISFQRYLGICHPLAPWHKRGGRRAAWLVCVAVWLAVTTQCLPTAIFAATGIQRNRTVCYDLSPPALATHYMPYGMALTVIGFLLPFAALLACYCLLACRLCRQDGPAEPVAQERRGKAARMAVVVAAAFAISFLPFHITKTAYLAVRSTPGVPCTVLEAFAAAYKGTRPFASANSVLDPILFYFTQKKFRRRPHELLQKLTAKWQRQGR
Sequence of P2Y purinoceptor 4 (Homo sapiens) (P51582 whole entry): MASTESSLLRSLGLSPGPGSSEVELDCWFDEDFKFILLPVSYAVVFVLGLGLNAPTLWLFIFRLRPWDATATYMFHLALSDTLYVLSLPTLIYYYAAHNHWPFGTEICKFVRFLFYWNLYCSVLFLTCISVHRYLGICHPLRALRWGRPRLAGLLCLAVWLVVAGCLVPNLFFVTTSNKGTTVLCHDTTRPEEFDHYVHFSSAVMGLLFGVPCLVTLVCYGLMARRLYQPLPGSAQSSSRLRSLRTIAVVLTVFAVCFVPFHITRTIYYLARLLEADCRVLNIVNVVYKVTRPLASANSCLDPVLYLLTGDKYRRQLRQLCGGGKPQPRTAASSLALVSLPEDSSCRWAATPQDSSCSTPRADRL
Sequence of Adenosine receptor A2b (Homo sapiens) (P29275 whole entry): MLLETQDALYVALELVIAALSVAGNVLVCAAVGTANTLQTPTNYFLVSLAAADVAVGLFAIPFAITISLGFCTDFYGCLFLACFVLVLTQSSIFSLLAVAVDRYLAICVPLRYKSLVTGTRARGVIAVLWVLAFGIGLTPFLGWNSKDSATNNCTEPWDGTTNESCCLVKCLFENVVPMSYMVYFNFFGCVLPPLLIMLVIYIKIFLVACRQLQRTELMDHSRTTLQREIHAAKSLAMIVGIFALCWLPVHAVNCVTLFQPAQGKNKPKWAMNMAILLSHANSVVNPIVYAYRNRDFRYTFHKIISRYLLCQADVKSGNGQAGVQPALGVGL
Sequence of Adenosine receptor A2a (Homo sapiens) (P29274 whole entry): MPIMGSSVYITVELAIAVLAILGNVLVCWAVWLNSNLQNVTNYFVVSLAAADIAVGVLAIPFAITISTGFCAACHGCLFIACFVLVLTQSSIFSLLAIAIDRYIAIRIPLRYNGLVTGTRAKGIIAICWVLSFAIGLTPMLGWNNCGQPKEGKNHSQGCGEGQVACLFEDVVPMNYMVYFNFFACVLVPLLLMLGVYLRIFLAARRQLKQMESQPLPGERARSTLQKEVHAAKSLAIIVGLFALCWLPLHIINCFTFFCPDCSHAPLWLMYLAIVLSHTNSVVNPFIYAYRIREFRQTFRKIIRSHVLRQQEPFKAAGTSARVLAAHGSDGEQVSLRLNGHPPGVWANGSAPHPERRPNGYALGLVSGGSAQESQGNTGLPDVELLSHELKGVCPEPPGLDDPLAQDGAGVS
Sequence of P2Y purinoceptor 11 (Homo sapiens) (Q96G91 whole entry): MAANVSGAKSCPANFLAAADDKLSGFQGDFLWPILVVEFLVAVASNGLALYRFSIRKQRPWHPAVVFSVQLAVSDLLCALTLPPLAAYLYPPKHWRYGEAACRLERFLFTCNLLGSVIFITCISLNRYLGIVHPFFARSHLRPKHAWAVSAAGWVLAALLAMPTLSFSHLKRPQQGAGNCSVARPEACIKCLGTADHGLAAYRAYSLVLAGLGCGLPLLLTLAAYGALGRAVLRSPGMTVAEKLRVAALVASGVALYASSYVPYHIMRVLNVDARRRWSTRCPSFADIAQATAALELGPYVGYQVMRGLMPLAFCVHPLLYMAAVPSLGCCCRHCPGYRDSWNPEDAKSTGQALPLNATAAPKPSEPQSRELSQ
Sequence of P2X purinoceptor 2 (Homo sapiens) (Q9UBL9 whole entry): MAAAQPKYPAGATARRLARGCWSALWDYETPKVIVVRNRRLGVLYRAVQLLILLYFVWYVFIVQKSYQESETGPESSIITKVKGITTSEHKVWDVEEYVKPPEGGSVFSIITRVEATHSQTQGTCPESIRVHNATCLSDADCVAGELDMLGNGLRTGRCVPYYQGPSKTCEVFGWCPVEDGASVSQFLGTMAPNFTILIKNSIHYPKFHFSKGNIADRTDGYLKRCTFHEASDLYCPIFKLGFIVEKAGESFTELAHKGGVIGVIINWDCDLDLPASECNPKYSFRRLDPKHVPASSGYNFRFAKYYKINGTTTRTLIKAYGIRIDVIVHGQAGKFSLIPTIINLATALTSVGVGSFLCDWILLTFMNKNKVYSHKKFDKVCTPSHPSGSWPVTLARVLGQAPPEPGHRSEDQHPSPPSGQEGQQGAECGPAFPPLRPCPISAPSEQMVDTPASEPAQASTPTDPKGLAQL
Sequence of P2Y purinoceptor 12 (Homo sapiens) (Q9H244 whole entry): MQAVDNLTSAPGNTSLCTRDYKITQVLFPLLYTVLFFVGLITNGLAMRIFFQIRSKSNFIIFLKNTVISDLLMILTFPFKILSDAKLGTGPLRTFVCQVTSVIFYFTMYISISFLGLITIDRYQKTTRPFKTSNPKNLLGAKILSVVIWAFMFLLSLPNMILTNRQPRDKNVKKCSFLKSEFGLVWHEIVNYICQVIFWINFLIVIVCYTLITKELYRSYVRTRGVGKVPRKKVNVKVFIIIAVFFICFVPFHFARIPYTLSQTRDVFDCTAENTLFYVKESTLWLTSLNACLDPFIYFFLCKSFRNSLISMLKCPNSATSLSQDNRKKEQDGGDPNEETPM
Sequence of Peroxisome proliferator-activated receptor gamma (Homo sapiens) (P37231 whole entry): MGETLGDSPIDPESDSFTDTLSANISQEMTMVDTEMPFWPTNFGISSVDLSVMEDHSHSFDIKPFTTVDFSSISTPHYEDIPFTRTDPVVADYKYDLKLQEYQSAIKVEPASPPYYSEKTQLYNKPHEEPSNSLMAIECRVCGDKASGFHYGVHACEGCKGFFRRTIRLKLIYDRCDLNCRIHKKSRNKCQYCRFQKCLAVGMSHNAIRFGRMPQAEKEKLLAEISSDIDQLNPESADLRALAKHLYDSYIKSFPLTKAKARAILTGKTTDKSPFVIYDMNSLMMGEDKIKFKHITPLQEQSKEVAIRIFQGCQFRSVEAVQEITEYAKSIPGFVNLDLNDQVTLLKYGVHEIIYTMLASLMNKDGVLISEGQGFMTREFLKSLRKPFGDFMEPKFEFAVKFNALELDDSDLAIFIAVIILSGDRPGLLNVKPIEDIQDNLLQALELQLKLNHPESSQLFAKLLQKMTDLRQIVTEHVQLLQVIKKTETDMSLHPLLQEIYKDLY
Sequence of P2Y purinoceptor 14 (Homo sapiens) (Q15391 whole entry): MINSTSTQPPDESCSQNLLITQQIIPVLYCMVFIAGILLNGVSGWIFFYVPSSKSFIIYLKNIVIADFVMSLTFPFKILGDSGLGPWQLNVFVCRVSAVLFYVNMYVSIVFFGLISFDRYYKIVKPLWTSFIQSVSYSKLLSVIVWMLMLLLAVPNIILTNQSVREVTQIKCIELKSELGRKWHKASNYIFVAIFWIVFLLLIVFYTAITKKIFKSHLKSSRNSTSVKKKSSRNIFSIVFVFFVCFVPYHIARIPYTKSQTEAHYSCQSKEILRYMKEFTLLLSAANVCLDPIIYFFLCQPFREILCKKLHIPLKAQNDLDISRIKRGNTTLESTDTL
Sequence of P2X purinoceptor 1 (Homo sapiens) (P51575 whole entry): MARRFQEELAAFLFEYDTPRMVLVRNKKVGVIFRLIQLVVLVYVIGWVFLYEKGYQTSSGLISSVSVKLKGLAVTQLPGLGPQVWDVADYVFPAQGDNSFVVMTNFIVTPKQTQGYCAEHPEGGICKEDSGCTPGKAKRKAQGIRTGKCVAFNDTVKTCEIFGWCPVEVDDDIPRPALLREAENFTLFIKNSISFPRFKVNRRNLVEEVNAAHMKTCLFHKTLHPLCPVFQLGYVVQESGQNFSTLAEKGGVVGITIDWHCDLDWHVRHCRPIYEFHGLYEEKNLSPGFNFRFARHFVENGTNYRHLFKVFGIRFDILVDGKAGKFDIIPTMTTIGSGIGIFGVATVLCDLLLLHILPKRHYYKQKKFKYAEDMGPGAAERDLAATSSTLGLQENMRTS
Sequence of P2X purinoceptor 7 (Homo sapiens) (Q99572 whole entry): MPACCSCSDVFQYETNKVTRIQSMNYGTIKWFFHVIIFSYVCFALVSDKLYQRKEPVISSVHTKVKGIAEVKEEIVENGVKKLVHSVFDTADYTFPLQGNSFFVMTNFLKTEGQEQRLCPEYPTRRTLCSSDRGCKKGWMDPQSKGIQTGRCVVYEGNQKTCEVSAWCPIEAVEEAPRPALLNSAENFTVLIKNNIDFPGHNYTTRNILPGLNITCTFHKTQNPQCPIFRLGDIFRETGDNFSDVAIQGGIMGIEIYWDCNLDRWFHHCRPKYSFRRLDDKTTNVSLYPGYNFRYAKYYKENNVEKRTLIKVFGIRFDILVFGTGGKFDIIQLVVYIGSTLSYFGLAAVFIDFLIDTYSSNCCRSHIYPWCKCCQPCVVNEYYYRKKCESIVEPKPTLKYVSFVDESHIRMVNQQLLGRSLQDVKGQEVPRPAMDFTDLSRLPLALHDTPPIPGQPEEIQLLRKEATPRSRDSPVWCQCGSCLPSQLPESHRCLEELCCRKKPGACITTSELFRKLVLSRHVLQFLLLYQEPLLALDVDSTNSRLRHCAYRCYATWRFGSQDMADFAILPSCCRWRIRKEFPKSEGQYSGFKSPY

CNC(=O)O[C@@H](CC(C)C)c1nc([C@H]2OC(=O)C/C=C/C(C)=C/[C@@H](O)[C@@H](C)\C=C(C)/C=C(C)\C=C\[C@@H](O)[C@H](C)[C@H](O)/C(C)=C/C=C/[C@@H]2C)cs1
Ki (Adenosine receptor A3): 1380 nM | IC50 [1]: 213 nM | IC50 (cells): 3050 nM | IC50 (Neutrophil elastase; read-out: IC50): 1540 nM | IC50 (P2X purinoceptor 3): > 10000 nM

CNC(=O)O[C@@H](CC(C)C)c1nc([C@H]2OC(=O)[C@H](C)/C=C/C(C)=C/[C@@H](O)[C@@H](C)\C=C(C)/C=C(C)\C=C\[C@@H](O)[C@H](C)[C@H](OC)/C(C)=C/C=C/[C@@H]2C)cs1
Ki (Adenosine receptor A3): ≥ 10000 nM | IC50 [1]: 7.94 nM | IC50 (cells): 2.58 nM | IC50 (Neutrophil elastase; read-out: IC50): 595 nM | IC50 (P2X purinoceptor 3): > 2000 nM

CO[C@@H]1/C(C)=C/C=C/CCOC(=O)C/C=C/C(C)=C/[C@@H](O)[C@@H](C)\C=C(C)/C=C(C)\C=C\[C@@H](O)[C@@H]1C
Ki (Adenosine receptor A3): 609 nM | IC50 (Neutrophil elastase; read-out: IC50): 5850 nM

CNC(=O)O[C@@H](CC(C)C)c1nc([C@@H](O)[C@@H](C)/C=C/C=C(\C)[C@@H](OC)[C@@H](C)[C@H](O)/C=C/C(C)=C\C(C)=C/[C@H](C)[C@H](O)/C=C(C)/C=C/CC(=O)OC)cs1
Ki (Adenosine receptor A3): 1610 nM | IC50 [1]: 352 nM | IC50 (cells): 296 nM | IC50 (Neutrophil elastase; read-out: IC50): 2340 nM | IC50 (P2X purinoceptor 3): > 10000 nM

CNC(=O)O[C@@H](CC(C)C)c1nc([C@H]2OC(=O)[C@@H](C)/C=C/C(C)=C/[C@@H](O)[C@@H](C)\C=C(C)/C=C(C)\C=C\[C@@H](O)[C@H](C)[C@H](OC)/C(C)=C/C=C/[C@@H]2C)cs1
Ki (Adenosine receptor A3): 1140 nM | IC50 [1]: 5.52 nM | IC50 (cells): 2.16 nM | IC50 (Neutrophil elastase; read-out: IC50): 721 nM | IC50 (P2X purinoceptor 3): 648 nM

CNC(=O)O[C@@H](CC(C)C)c1nc([C@H]2OC(=O)/C(C)=C/C/C(C)=C/[C@@H](O)[C@@H](C)\C=C(C)/C=C(C)\C=C\[C@@H](O)[C@H](C)[C@H](OC)/C(C)=C/C=C/[C@@H]2C)cs1 [ARCHAZOLID A]
inhibition [2]: inactive | inhibition [3]: 82% | inhibition [4]: inactive | Ki (Adenosine receptor A3): 967 nM | inhibition [5]: inactive | inhibition (Trypsin (Homo sapiens)): inactive | inhibition [6]: inactive | inhibition [7]: inactive | IC50 [1]: 6.33 nM | IC50 (cells): 0.253 nM | inhibition [8]: inactive | inhibition [9]: inactive | inhibition [10]: inactive | inhibition (Homo sapiens): 52% | inhibition [11]: inactive | inhibition [12]: inactive | inhibition [13]: inactive | inhibition [14]: inactive | inhibition [15]: inactive | inhibition [16]: inactive | inhibition [17]: Dose-dependent effect | inhibition [18]: inactive | inhibition [19]: inactive | inhibition [20]: inactive | IC50 (Neutrophil elastase; read-out: IC50): 352 nM | inhibition [21]: inactive | IC50 (P2X purinoceptor 3): 86.1 nM

CNC(=O)O[C@@H](CC(C)C)c1nc([C@H]2OC(=O)C/C=C/C(C)=C/[C@@H](O)[C@@H](C)\C=C(C)/C=C(C)\C=C\[C@@H](O)[C@H](C)[C@H](OC)/C(C)=C/C=C/[C@@H]2C)cs1 [ARCHAZOLID F]
Drug metabolism [22]: Metabolite_Detected | Ki (Adenosine receptor A3): 859 nM | Drug metabolism [23]: Metabolite_Detected | inhibition (Trypsin (Homo sapiens)): inactive | inhibition [6]: inactive | IC50 [1]: 6.26 nM | microsomal CLint at 1 µM [24]: 271 µL/min/mg | IC50 (cells): 4.51 nM | Drug metabolism [25]: Metabolite_Detected | inhibition [14]: inactive | inhibition [15]: inactive | Drug metabolism [26]: Metabolite_Detected | Drug metabolism [27]: Metabolite_Detected | IC50 (Neutrophil elastase; read-out: IC50): 830 nM | Drug metabolism [28]: Metabolite_Detected | IC50 (P2X purinoceptor 3): 438 nM

CO/C1=C\C(C)=C\[C@@H](C)[C@@H](O)[C@@H](C)C/C(C)=C/C=C/[C@H](OC)[C@@H]([C@@H](C)[C@@H](O)[C@H](C)[C@@]2(O)C[C@@H](O)[C@H](C)[C@@H](C(C)C)O2)OC1=O [BAFILOMYCIN A1]
Ki (Adenosine receptor A3): 1080 nM | IC50 [1]: 10 nM | IC50 (cells): 3.06 nM | IC50 (Neutrophil elastase): Not Active | IC50 (P2X purinoceptor 3): 755 nM
